In series [1] the test system is human keratinocytes. Description: Keratinocyte proliferation, assay 1 (KGM supplemented to 1.5 mM CaCl2, 5 days). Conditions: for inhibition at 0.03 µM / inhibition at 0.1 µM / inhibition at 0.3 µM / inhibition at 1 µM: Homo sapiens, Keratinocyte; for inhibition at 0.03 µM: assay 1, 0.03 μM; for inhibition at 0.1 µM: assay 1, 0.1 μM; for inhibition at 0.3 µM: assay 1, 0.3 μM; for inhibition at 1 µM: assay 1, 1.0 μM; for antiproliferative activity, assay 1 (in words): assay 1, lower doses. It counts as cell-based. The procedure: (§1) Quantitation of Morphological Changes During Keratinocyte Proliferation Materials and Methods
(§2) Human neonatal foreskins were collected by circumcision and placed into tubes containing Dulbecco's Modified Eagle's Medium (DMEM) with 10% serum. On arrival at the laboratory, they were mechanically trimmed of excess dermis, and treated with a solution of trypsin/EDTA (0.05%/0.02%) at 4° C. overnight. The epidermis was stripped from the dermis, agitated in buffered saline containing soybean trypsin inhibitor to remove basal keratinocytes and the stratum cornea layer was removed. The separated cells were centrifuged, resuspended in the above media, counted, and the cells plated onto plastic culture dishes or plates at a density of 25,000 cells/cm^2 in keratinocyte growth media (KGM®-modified MCDB 153, Clonetics, Inc., Catalog #CC3001) according to protocols developed by Boyce and Ham (In Vitro Models for Cancer Research III, 246-274, 1986) for MCDB 153 media. The cultures were incubated in humidified chambers with 5% CO2 at 37° C. The cultures were refed with fresh media two to three times per week. Prior to reaching confluency the cells were replated (passage one) at 25,000 cells/well on 6-well cluster plates (Costar catalog #3506) in KGM.
(§3) 1 milligram quantities were received in amber glass vials, and stored at -20° C. Sufficient 100% ethanol was added directly to the vials to obtain a millimolar solution that was subsequently aliquoted into small amber vials, overlayed with argon gas and stored at […] Each stock solution was thawed once, used and discarded. Aliquots from the stock solutions were diluted directly into medium and then serially diluted from micromolar to 10^-12 M concentrations. Dilutions from 10^-8 M to 10^-12 M had ethanol added for a final concentration of 0.1%. Stock solutions were used within one month. Control cultures were treated with 0.1% ethanol.
(§4) Approximately 24 hours after passage one, the cells were refed with fresh KGM supplemented to 1.5 mM CaCl2 (assay 1) containing the test compound. In a second assay (assay 2), the cells were grown in KGM without calcium supplementation to stimulate more proliferation and grown for 7 days instead of 5 days. Compounds were typically tested at 4 concentrations in triplicate wells. At the termination of the experiment, prior to the cultures reaching confluency, the cells were enumerated as follows. Dishes were rinsed with phosphate buffered saline, and then incubated with trysin/EDTA solution for 15 minutes. Cells were suspended, an aliquot placed into isotonic buffered saline and counted on an electronic particle counter (Coulter Counter). The counter was periodically calibrated for the correct size of keratinocytes. Each well was counted in triplicate. The number of cells per dish were calculated according to dilution factors used and results shown below in Table 3 are presented as percent inhibition obtained in control cultures.

Series [2] concerns human keratinocytes. As to the kind of experiment: Keratinocyte proliferation, assay 2 (KGM without calcium supplementation, 7 days). It counts as cell-based. The note with it: for inhibition at 0.03 µM / inhibition at 0.1 µM / inhibition at 0.3 µM / inhibition at 1 µM: Homo sapiens, Keratinocyte, Exp. 1, read-out: Percentage Inhibition of Controls, Exp. 1; for inhibition at 0.03 µM: assay 2, 0.03 μM; for inhibition at 0.1 µM: assay 2, 0.1 μM; for inhibition at 0.3 µM: assay 2, 0.3 μM; for inhibition at 1 µM: assay 2, 1.0 μM; for antiproliferative activity, assay 2 (in words): assay 2, lower doses; for proliferation of human keratinocytes / skin cells (in words): assays 1 and 2 not distinguished; for dose response (in words): low calcium and more rapidly dividing cells. As to the method:
as §1, §2, §3, §4

The test system of series [3] is hydroxylase enzymes. As to the kind of experiment: Metabolism in perfused rat kidneys. Type of series: in vitro ADME. As to the method:
The compounds of formulas I and II were prepared by perfusing 1,25(OH)2 -16-ene-D3 in rat kidneys, extracting the perfusate and isolating the compounds of formulas I and II.
Crystalline 1,25(OH)2 -16-ene-D3 was synthesized as described in U.S. Pat. No. 5,087,619, which is herein incorporated by reference to the extent necessary to enable one of skill in the art to make this invention. Rat kidneys were perfused with the 1,25(OH)2 -16-ene-D3 as described in Am. J. Physiol. 1982, 243 E265-271 and in Biochemistry 1987, 26, 324-331. Cold 1,25(OH)2 -16-ene-D3 (400 nmoles) was introduced into 100 mL of perfusate and the kidney perfusion was continued for 8 hours. Lipid extraction of the final kidney perfusate was performed according to the procedure described in Can. J. Biochem. Physiol. 1959, 37, 911-917. Half of the bulk lipid extract from the final perfusate of about 100 mL was then subjected directly to high pressure liquid chromatography (HPLC) performed with a Waters Model 600 equipped with a Model 990 photo diode array detector (Waters Associates, Milford, MA). HPLC analysis was performed on the lipid extract obtained from 50 mL of perfusate under the following conditions: Zorbax-SIL column (25 cm×4.6 mm); Hexane: 2-propanol (90:10), Flow rate: 2 mL/minutes. A known amount of 25(S),26(OH)2 -D3 was added to the perfusate at the time of lipid extraction to assess extraction of vitamin D metabolites in general. Fractions of each individual metabolite from the first HPLC run was pooled and subjected to a second HPLC run using the same Zorbax-SIL column eluted with methylene chloride:2-propanol […]. Each metablite obtained from the second HPLC run was chromatographed twice using the first HPLC system. At this time, the purity of each metabolite was adequate for its structure identification process. A control perfusion was performed with cold 1,25(OH)2 -D3 in a similar fashion and the lipid extract of the final perfusate was analyzed using the same HPLC systems as above.

The mark [4] stands for this setting: Exp. 2, read-out: Percentage Inhibition of Controls, Exp. 2.
[5] abbreviates: average of Exp. 1 and 2, read-out: Percentage Inhibition of Controls, Average.

For the compound `C=C1/C(=C\C=C2/CCC[C@]3(C)C([C@H](C)CCC(=O)C(C)(C)O)=CC[C@@H]23)C[C@@H](O)C[C@@H]1O` [1,25(OH)2-16-ene-24-oxo-D3, 1,25-dihydroxy-16-ene-24-oxo-cholecalciferol], in series [1] (setting [4]), the inhibition at 0.03 µM was 82.8%, the inhibition at 0.1 µM was 108%, the inhibition at 0.3 µM stood at 73.3% and the inhibition at 1 µM is 73.1%. In series [1] (setting [5]), the inhibition at 0.03 µM turned out to be 80.1%, the inhibition at 0.1 µM came to 89.1%, the inhibition at 0.3 µM was 67.8% and the inhibition at 1 µM was determined as 68.1%. The “antiproliferative activity, assay 1 (in words)” value in series [1] is listed as “some antiproliferative activity at lower doses, although this activity is not dose dependent”. In addition, in series [2], the inhibition at 0.03 µM was found to be 63 ± 7.21%, the inhibition at 0.1 µM was found to be 45.3 ± 9.48%, the inhibition at 0.3 µM was 31.1 ± 11.8% and the inhibition at 1 µM was determined as 17.4 ± 8.13%. For the same compound, in series [2], the “antiproliferative activity, assay 2 (in words)” value is recorded as “strong antiproliferative activity at lower doses”; the “proliferation of human keratinocytes / skin cells (in words)” value was “restrained the proliferation of skin cells”; the “dose response (in words)” value is recorded as “good dose response curve”. Also, the “proliferation of human keratinocytes / skin cells (in words)” value in series [2] (listed as I) is recorded as “decrease proliferation of human keratinocytes”. Also, the “resistance to further hydroxylation (in words)” value in series [3] (rat kidney perfusion) was “resisted further hydroxylation from other hydroxylase enzymes”.

With `C=C1/C(=C\C=C2/CCC[C@]3(C)C([C@H](C)CCCC(C)(C)O)=CC[C@@H]23)C[C@@H](O)C[C@@H]1O` [1,25(OH)2-16-ene-D3, 1,25-dihydroxy-16-ene-cholecalciferol], in series [1] (setting [4]), the inhibition at 0.03 µM is 88.4%, the inhibition at 0.1 µM is 83.6%, the inhibition at 0.3 µM was found to be 89% and the inhibition at 1 µM is 57.1%. Moreover, in series [1] (setting [5]), the inhibition at 0.03 µM is 89.8%, the inhibition at 0.1 µM was determined as 82.3%, the inhibition at 0.3 µM stood at 84.5% and the inhibition at 1 µM worked out at 58.5%. Further, the “antiproliferative activity, assay 1 (in words)” value in series [1] is on record as “some antiproliferative activity at lower doses, although this activity is not dose dependent”. Besides, in series [2], the inhibition at 0.03 µM came out at 75.6 ± 3.35%, the inhibition at 0.1 µM was 56.2 ± 5.7%, the inhibition at 0.3 µM was found to be 36 ± 10.3% and the inhibition at 1 µM was 22.4 ± 8.55%. In addition, in series [2], the “antiproliferative activity, assay 2 (in words)” value is reported as “strong antiproliferative activity at lower doses” and the “dose response (in words)” value is “good dose response curve”. Also, the “metabolism (in words)” value in series [3] (400 nmoles in 100 mL perfusate, 8 hours) is “metabolized mainly into two metabolites”.

In general, inhibition refers to the drop in the measured response relative to a control, in per cent.

For the origin of these results see patent US5401733A, “Stable and active metabolites of 1,25-dihydroxy-16-ene-cholecalciferol” (Hoffmann-La Roche Inc., priority 1993, dated 1995).
